Assay results reported in publication PMC8017616, “Discovery of two novel laccase-like multicopper oxidases from Pleurotus citrinopileatus and their application in phenolic oligomer synthesis” (Biotechnology for Biofuels, 2021).
Where a name gives a salt, the structure may show the parent alone. Read-outs that look alike come from different tables or passages of the source.

Key:
Details in all cases: 50 mM phosphate-citrate buffer pH 4; routine assay 35 °C
PcLac1 [1] = tested on: T1, PcLac1; assay: spectrophotometric oxidation at […] nm, nonlinear Michaelis-Menten fit; type: biochemical, Pleurotus citrinopileatus
T1 construct: native, purified from culture supernatant (Q Sepharose, DEAE Sepharose); 60 kDa by SDS-PAGE

PcLac2 [2] = tested on: T2, PcLac2; assay: as above; type: biochemical, Pleurotus citrinopileatus
T2 construct: native, purified from culture supernatant (Q Sepharose, DEAE Sepharose); about 75 kDa by SDS-PAGE; band also holds a copper radical oxidase-like protein

PcLac2 [3] = tested on: PcLac2
PcLac1 [4] = tested on: PcLac1

| Km (PcLac1 [1]) | Km (PcLac2 [2]) | Km (PcLac2 [3]) | Km (PcLac1 [4]) | SMILES |
| --- | --- | --- | --- | --- |
| 672 ± 56 µM | 1.07 ± 0.105 mM |  |  | COc1cccc(OC)c1O [2,6-DMP, 2,6-dimethoxyphenol] |
|  |  | 165 ± 15 µM | 60 ± 7 µM | CCn1c(=NN=c2sc3cc(S(=O)(=O)O)ccc3n2CC)sc2cc(S(=O)(=O)O)ccc21 [ABTS, 2,2′-Azino-bis-(3-ethylbenzthioazoline-6-sulfonic acid) diammonium salt] |
